Tests used:
Ah receptor (AhR) [1] = target: T1, Ah receptor (AhR) (Mus musculus, UniProt P30561); assay: yAhR nuclear translocation in yAHAYc6 cells, fluorescence microscopy; assay type: cell-based
T1 sequence (P30561 10-848): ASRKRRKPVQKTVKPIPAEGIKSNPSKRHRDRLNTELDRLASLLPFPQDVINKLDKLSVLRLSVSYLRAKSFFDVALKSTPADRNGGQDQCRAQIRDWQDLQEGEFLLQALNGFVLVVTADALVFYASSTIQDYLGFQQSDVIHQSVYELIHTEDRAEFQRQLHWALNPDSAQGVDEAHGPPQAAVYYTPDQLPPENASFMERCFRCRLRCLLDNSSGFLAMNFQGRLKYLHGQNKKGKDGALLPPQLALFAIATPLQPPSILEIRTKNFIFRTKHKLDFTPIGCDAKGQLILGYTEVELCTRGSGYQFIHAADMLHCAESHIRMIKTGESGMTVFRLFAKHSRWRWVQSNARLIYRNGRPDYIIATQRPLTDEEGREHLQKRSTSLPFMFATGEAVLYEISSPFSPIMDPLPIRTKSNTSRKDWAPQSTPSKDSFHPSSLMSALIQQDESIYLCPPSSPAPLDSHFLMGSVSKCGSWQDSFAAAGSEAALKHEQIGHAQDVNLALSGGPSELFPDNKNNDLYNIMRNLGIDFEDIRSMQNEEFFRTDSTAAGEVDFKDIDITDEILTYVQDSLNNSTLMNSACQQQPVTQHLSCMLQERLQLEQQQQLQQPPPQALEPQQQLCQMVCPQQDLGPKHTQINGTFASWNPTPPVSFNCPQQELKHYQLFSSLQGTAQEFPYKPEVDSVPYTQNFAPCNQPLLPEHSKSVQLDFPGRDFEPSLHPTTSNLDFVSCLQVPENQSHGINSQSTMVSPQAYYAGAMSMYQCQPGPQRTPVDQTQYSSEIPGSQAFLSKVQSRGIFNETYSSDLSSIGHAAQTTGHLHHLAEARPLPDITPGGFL

Ah receptor (AhR) [2] = target: T1, Ah receptor (AhR); assay: yAhR nuclear translocation in yAHAYc6 cells; assay type: cell-based

## Cc1ccc2cc3c(ccc4ccccc43)c3c2c1CC3 [3-methylcholanthrene]
Ah receptor (AhR) [1]
  yAhR nuclear translocation in yAHAYc6 cells, fluorescence microscopy: known AhR agonists (TCDD, DBA, PCB77, indirubin, 3MC and BNF

## Clc1ccc(-c2ccc(Cl)c(Cl)c2)cc1Cl [PCB77, 3,3’,4,4’-Tetrachlorobiphenyl]
Ah receptor (AhR) [1]
  yAhR nuclear translocation in yAHAYc6 cells, fluorescence microscopy: known AhR agonists (TCDD, DBA, PCB77, indirubin, 3MC and BNF

## Clc1cc2c(cc1Cl)Oc1cc(Cl)c(Cl)cc1O2 [TCDD, 2,3,7,8-tetrachlorodibenzo-p-dioxin]
Ah receptor (AhR) [2]
  EC50: 0.2 nM

## c1ccc2c(c1)ccc1cc3c(ccc4ccccc43)cc12 [dibenz(a,h)anthracene]
Ah receptor (AhR) [1]
  yAhR nuclear translocation in yAHAYc6 cells, fluorescence microscopy: known AhR agonists (TCDD, DBA, PCB77, indirubin, 3MC and BNF

## O=C1Nc2ccccc2/C1=C1/Nc2ccccc2C1=O [indirubin]
Ah receptor (AhR) [1]
  yAhR nuclear translocation in yAHAYc6 cells, fluorescence microscopy: known AhR agonists (TCDD, DBA, PCB77, indirubin, 3MC and BNF

Source: article PMC7260106 (Toxicology in vitro : an international journal published in …, 2020)
